Data taken from PubChem BioAssay (NCI).
“And” between values parts separate entries of the source, which are not always exact repeats. Equal entries are not always repeated.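 48-hour exposure; five concentrations; linearly interpolated endpoints. GI50 marks 50% less growth. TGI is the concentration that stops growth completely.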

Legend:
Assay in all cases: DTP human tumour cell line panel, 48 h
RXF 393 renal = system: RXF 393 renal
BT-549 breast = system: BT-549 breast
HS 578T breast = system: HS 578T breast
M14 melanoma = system: M14 melanoma
ACHN renal = system: ACHN renal
NCI-H460 lung = system: NCI-H460 lung
SNB-19 CNS = system: SNB-19 CNS
UACC-62 melanoma = system: UACC-62 melanoma
HOP-92 NSCLC = system: HOP-92 NSCLC
SK-MEL-5 melanoma = system: SK-MEL-5 melanoma

| SMILES | GI50 (RXF 393 renal) | TGI (RXF 393 renal) | GI50 (BT-549 breast) | TGI (BT-549 breast) | GI50 (HS 578T breast) | TGI (HS 578T breast) | GI50 (M14 melanoma) | TGI (M14 melanoma) | GI50 (ACHN renal) | TGI (ACHN renal) | GI50 (NCI-H460 lung) | TGI (NCI-H460 lung) | GI50 (SNB-19 CNS) | TGI (SNB-19 CNS) | GI50 (UACC-62 melanoma) | TGI (UACC-62 melanoma) | GI50 (HOP-92 NSCLC) | TGI (HOP-92 NSCLC) | GI50 (SK-MEL-5 melanoma) | TGI (SK-MEL-5 melanoma) |
| --- | --- | --- | --- | --- | --- | --- | --- | --- | --- | --- | --- | --- | --- | --- | --- | --- | --- | --- | --- | --- |
| CC(C)NC[C@@H](C(=O)N1CCN(c2ncnc3c2[C@H](C)C[C@H]3O)CC1)c1ccc(Cl)cc1 | 293 nM and 341 nM | 4.85 µM and 5.55 µM | 752 nM and 1590 nM | > 10 µM and 56.2 µM | 1000 nM and 657 nM | > 10 µM and 18.4 µM | > 61.5 µM | > 100 µM | > 10000 nM and 22800 nM | > 100 µM | 1470 nM and 2330 nM | > 100 µM | 1640 nM and 1380 nM | > 89.5 µM | 1900 nM and 6000 nM | > 100 µM | 407 nM and 1130 nM | 6.8 µM and 11.6 µM | > 10000 nM and 27800 nM | > 100 µM |
| CC(C)(C)C#CC1=C(Br)C(=O)OC1 | 2440 nM | 6.8 µM | 4890 nM | 19.7 µM | > 26900 nM | > 78.2 µM | 3.61 µM | 27 µM | 266 nM |  | 3720 nM | 15.1 µM | 24700 nM | > 100 µM | 13200 nM | > 45.5 µM | 2820 nM | 9.2 µM | > 100000 nM | > 100 µM |
| Cc1occc1C(=S)Nc1ccc(Cl)c(COC(C)(C)C)c1 |  | 32.3 µM |  | 33.6 µM |  | 49.6 µM |  | 43.5 µM |  | 31.1 µM |  | 31 µM |  | 48.2 µM |  | 28.6 µM |  | 30.4 µM |  | 33.4 µM |
| ClCCn1c(CCl)nc2ccc(Cl)cc21 | 379 nM | 1.34 µM | 277 nM | 0.753 µM | 2060 nM | 7.03 µM | 0.466 µM | 1.64 µM | 1350 nM | 2.72 µM | 955 nM | 4.59 µM | 2330 nM | 7.19 µM | 430 nM | 1.59 µM | 938 nM | 2.63 µM | 176 nM | 0.329 µM |
| Cc1c(C(=O)/C=C/c2csc3ccccc23)[n+](=O)c2ccccc2n1[O-] | 1910 nM | 3.58 µM | 1610 nM | 3.88 µM | 1560 nM | 5.22 µM | 1.57 µM | 3.21 µM | 1480 nM | 2.8 µM | 1410 nM | 2.71 µM | 2080 nM | 4.77 µM | 1770 nM | 3.65 µM |  |  | 1590 nM | 2.94 µM |
| O=C(c1ccc(F)cc1)c1cccc(C(=O)c2ccc(F)cc2)n1 |  | 33.4 µM |  | 18.5 µM |  | > 94.8 µM |  | > 100 µM |  | > 100 µM |  | > 100 µM |  | 54 µM |  | > 100 µM |  | 44.4 µM |  | > 79.2 µM |
| COc1ccc(C(=O)/C=C/c2ccc(/C=C/c3cc(OC)c(OC)c(OC)c3)cc2)cc1 | 8010 nM | 43.6 µM | 3360 nM | 16.8 µM | 9110 nM | > 100 µM | 9.61 µM | > 100 µM | 11600 nM | > 100 µM | 8650 nM | > 100 µM | 21100 nM | > 100 µM | 7130 nM | > 100 µM |  |  | 3390 nM | 19.2 µM |
| CCCCCn1c(=N)n(CC(O)COc2cccc(C)c2)c2ccccc21 (centres undefined) |  |  | 9220 nM | 23.3 µM | 5500 nM | 24.8 µM | 3.26 µM | 12.3 µM | 8850 nM | 23.8 µM | 4620 nM | 17.3 µM | 12300 nM | 26.4 µM | 4850 nM | 18.5 µM | 2740 nM | 14.8 µM | 2750 nM | 7.82 µM |
| Nc1ccn(Cc2ccc(C34CC5CC(CC(C5)C3)C4)c(O)c2)c(=O)n1 |  |  | > 100000 nM | > 100 µM | 14400 nM | > 100 µM | > 100 µM | > 100 µM | > 100000 nM | > 100 µM | > 100000 nM | > 100 µM | 89100 nM | > 100 µM | > 100000 nM | > 100 µM | 22500 nM | 71.4 µM | 82400 nM | > 100 µM |
| CN(C)/C=C/c1nnc([N+](=O)[O-])s1 |  | 31.4 µM |  | 34.7 µM |  | 42.6 µM |  | 29.1 µM |  | 31.9 µM |  | 33.1 µM |  | 79.3 µM |  | 35.4 µM |  |  |  | 24.3 µM |
| Cc1ccc(/C=C2\CN(C(=O)OC(C)(C)C)C/C(=C\c3ccc(C)cc3)C2=O)cc1 | 62.5 nM | 4.36 µM | 221 nM | 28.7 µM | 56.2 nM | 3.45 µM | 0.0608 µM | > 100 µM | 1060 nM | > 100 µM | 124 nM | 10.7 µM | 226 nM | > 100 µM | 78.8 nM | > 100 µM | 8970 nM | > 100 µM |  |  |
| CC1(C)SC2C(NC(=O)C(N)c3ccccc3)C(=O)N2C1C(=O)O (centres undefined) |  |  |  | > 100 µM |  | > 100 µM |  | > 100 µM |  | > 100 µM |  | > 100 µM |  | > 100 µM |  | > 100 µM |  | > 100 µM |  | > 100 µM |
| COc1ccc2nc3cc([N+](=O)[O-])ccc3c(NCCCCCN(C)C)c2c1 |  |  | 1770 nM | 3.55 µM | 376 nM | 4.66 µM | 0.216 µM | 0.522 µM | 592 nM | 7.49 µM | 81.5 nM | 1.03 µM | 301 nM | 1.23 µM | 231 nM | 0.74 µM | 148 nM | 0.49 µM | 159 nM | 0.39 µM |
| CC1SC(c2c(Cl)cccc2Cl)N(NC(=O)c2[nH]c3ccc(F)cc3c2-c2ccccc2)C1=O (centres undefined) | 1730 nM | 4.12 µM | 5040 nM | 28.5 µM | 1930 nM | 4.38 µM | 3.96 µM | 30.2 µM | 2820 nM | 8.35 µM | 2030 nM | 3.9 µM | 2170 nM | 5.82 µM | 4000 nM | 32.5 µM |  |  | 2720 nM | 11.9 µM |
| COc1cc(C2c3cc4c(cc3[C@@H](Nc3ccc(C#N)cc3)C3COC(=O)[C@H]23)OCO4)cc(OC)c1O (some centres undefined) | 2530 nM | 4.96 µM and 9.01 µM | 1710 nM | 33.8 µM and 7.42 µM | 3380 nM | 29.1 µM and > 100 µM |  |  | 128 nM | 1.24 µM and 2.41 µM | 17.4 nM and 26.1 nM |  | 314 nM and 768 nM |  | 783 nM | 9.01 µM and 14.1 µM | 685 nM | 6.77 µM and 5.99 µM | 911 nM and 540 nM | 4.68 µM and 2.68 µM and 2.06 µM |
